From patent US20250304582A1, “Bicyclic Ureas As Kinase Inhibitors” (Incyte Corporation, priority 2024, published 2025)

Tests used:
[1] = biological target: T1, catalytic domain (JH1, amino acids 826-1132) of human JAK2 (Homo sapiens, UniProt O60674); test: JAK2 LanthaScreen JH1 Binding Assay; conditions: 50 nM fluorescent JAK2-JH1 tracer, 2 hours at 25° C.; read-out: JH1 BIND (EX. A)
T1 construct: catalytic domain (JH1, amino acids 826-1132) of human JAK2; FLAG (N); purchased Carna Biosciences 08-445-20N; host or cells: baculovirus expression system
T1 sequence (O60674 826-1132): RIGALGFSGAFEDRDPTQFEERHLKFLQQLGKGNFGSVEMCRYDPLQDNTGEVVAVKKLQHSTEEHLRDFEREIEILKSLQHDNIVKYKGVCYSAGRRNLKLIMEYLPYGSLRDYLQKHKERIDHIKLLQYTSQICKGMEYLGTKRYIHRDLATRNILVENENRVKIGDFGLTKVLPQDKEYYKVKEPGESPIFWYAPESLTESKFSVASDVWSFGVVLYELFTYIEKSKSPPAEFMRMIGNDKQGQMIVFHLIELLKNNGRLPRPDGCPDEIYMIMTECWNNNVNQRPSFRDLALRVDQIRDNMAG
Description: Example A. JAK2 LanthaScreen JH1 Binding Assay
JAK2 JH1 binding assay utilizes catalytic domain (JH1, amino acids 826-1132) of human JAK2 expressed as N-terminal FLAG-tagged, biotinylated protein in a baculovirus expression system (Carna Biosciences, Product #08-445-20N). The assay was conducted in black 384-well polystyrene plates in a final reaction volume of 20 μL. JAK2 JH1 (1.5 nM) was incubated with compounds (100 nL serially diluted in DMSO) in the presence of 50 nM fluorescent JAK2-JH1 tracer and 0.5 nM Streptavidin-Tb cryptate (Cisbio Part #610SATLB) in assay buffer (50 mM Tris, pH=7.5, 10 mM MgCl2, 0.01% Brij-35, 0.1% BSA, 1 mM EGTA, 5% Glycerol and 5 mM DTT). Non-specific binding was accessed in the presence of 2 mM ATP. After incubation for 2 hours at 25° C., LanthaScreen signals were read on a PHERAstar FS plate reader (BMG LABTECH). Data was analyzed with IDBS Xlfit and GraphPad Prism 5.0 software using a four parameter dose response curve to determine IC50 for each compound.

[2] = biological target: T2, pseudo-kinase domain (JH2, amino-acids 536-812) of human V617F mutant JAK2 (Homo sapiens, UniProt O60674, F794H/V617F/W659A/W777A); test: JAK2 LanthaScreen JH2-V617F Binding Assay; conditions: 50 nM Fluorescent JAK2-JH2 Tracer, 1 hour at 25° C.; read-out: JH2 BIND V617F (Ex. C)
T2 construct: JH2, amino-acids 536-812 with 3 surface mutations W659A, W777A, F794H; His (C); purchased BPS Bioscience 79498; host or cells: baculovirus expression system
T2 sequence (O60674 536-812 V617F/W659A/W777A/F794H): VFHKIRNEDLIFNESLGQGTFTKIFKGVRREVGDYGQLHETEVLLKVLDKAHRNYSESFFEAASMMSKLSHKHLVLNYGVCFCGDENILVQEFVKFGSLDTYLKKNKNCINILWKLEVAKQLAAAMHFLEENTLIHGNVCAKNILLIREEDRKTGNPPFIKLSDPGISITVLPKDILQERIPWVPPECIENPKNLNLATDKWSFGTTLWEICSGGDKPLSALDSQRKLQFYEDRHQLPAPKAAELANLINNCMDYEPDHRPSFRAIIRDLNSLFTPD
Description: Example C. JAK2 LanthaScreen JH2-V617F Binding Assay
(§1) JAK2 JH2-V617F binding assay utilizes pseudo-kinase domain (JH2, amino-acids 536-812 with 3 surface mutations W659A, W777A, F794H) of human V617F mutant JAK2 expressed as C-terminal His-Avi-tagged, biotinylated protein in a baculovirus expression system (BPS Bioscience, Catalog #79498). The assay was conducted in black 384-well polystyrene plates in a final reaction volume of 20 μL. JAK2 JH2-V617F (0.26 nM) was incubated with compounds (100 nL serially diluted in DMSO) in the presence of 50 nM Fluorescent JAK2-JH2 Tracer (MedChem Express Catalog #HY-102055) and 0.25 nM Streptavidin-Tb cryptate (Cisbio Part #610SATLB) in assay buffer (50 mM Tris, pH=7.5, 10 mM MgCl2, 0.01% Brij-35, 0.1% BSA, 1 mM EGTA, 5% Glycerol and 5 mM DTT). Non-specific binding was accessed in the presence of 2 mM ATP. After incubation for 1 hour at 25° C., LanthaScreen signals were read on a PHERAstar FS plate reader (BMG LABTECH). Data was analyzed with IDBS Xlfit and GraphPad Prism 5.0 software using a four parameter dose response curve to determine IC50 for each compound.

[3] = biological target: T3, catalytic domain (JH1, amino acids 808-1132) of human JAK2 (Homo sapiens, UniProt O60674); test: JAK2 HTRF Enzyme Activity Assay; format: biochemical; conditions: ATP (30 μM or 1 mM; not stated which for the table), 60 minutes at 25° C.; read-out: JAK2 HTRF (Ex. D)
T3 construct: catalytic domain (JH1, amino acids 808-1132) of human JAK2; His (N); purchased BPS Bioscience 40450; host or cells: baculovirus expression system
T3 sequence (O60674 808-1132): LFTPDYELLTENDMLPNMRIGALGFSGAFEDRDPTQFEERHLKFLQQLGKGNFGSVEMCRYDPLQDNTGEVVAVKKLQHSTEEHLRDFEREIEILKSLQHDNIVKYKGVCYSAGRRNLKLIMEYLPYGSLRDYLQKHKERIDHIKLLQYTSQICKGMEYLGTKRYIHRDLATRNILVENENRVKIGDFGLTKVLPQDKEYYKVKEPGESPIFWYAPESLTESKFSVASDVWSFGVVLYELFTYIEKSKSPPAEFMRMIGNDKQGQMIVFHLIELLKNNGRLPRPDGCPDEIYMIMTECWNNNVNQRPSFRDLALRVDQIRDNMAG
Description: Example D. JAK2 HTRF Enzyme Activity Assay
JAK2 enzyme activity assays utilize catalytic domain (JH1, amino acids 808-1132) of human JAK2 expressed as N-terminal His-tagged protein in a baculovirus expression system (BPS Bioscience, Catalog #40450). The assays was conducted in black 384-well polystyrene plates in a final reaction volume of 20 μL. JAK2 (0.015 nM) was incubated with compounds (100 nL serially diluted in DMSO) in the presence of ATP (30 μM or 1 mM) and 500 nM Biotin-labeled EQEDEPEGDYFEWLE (SEQ ID NO.: 1) peptide (BioSource International, custom synthesis) in assay buffer (50 mM Tris, pH=7.5, 10 mM MgCl2, 0.01% Brij-35, 0.1% BSA, 1 mM EGTA, 5% Glycerol and 5 mM DTT) for 60 minutes at 25° C. The reactions were stopped by the addition of 10 μL of detection buffer (50 mM Tris, pH 7.8, 0.5 mg/mL BSA, 150 mM NaCl), supplemented with EDTA, LANCE Eu-W1024 anti-phosphotyrosine (PY20), (PerkinElmer, Catalog #AD0067) and Streptavidin SureLight APC (PerkinElmer Catalog #CR130-100), for a final concentration of 15 mM, 1.5 nM and 75 nM, respectively. HTRF signals were read after 30 minutes incubation at room temperature on a PHERAstar FS plate reader (BMG LABTECH). Data was analyzed with TDBS Xlfit and GraphPad Prism 5.0 software using a four parameter dose response curve to determine IC50 for each compound.

[4] = biological target: T4, pseudo-kinase domain (JH2, amino-acids 536-812) of human Wild Type JAK2 (Homo sapiens, UniProt O60674, F794H/W659A/W777A); test: JAK2 LanthaScreen JH2-WT Binding Assay; conditions: 50 nM Fluorescent JAK2-JH2 Tracer, 1 hour at 25° C.; read-out: JH2 BIND WT (EX. B)
T4 construct: JH2, amino-acids 536-812 with 3 surface mutations W659A, W777A, F794H; His (C); purchased BPS Bioscience 79463; host or cells: baculovirus expression system
T4 sequence (O60674 536-812 W659A/W777A/F794H): as the sequence (O60674 536-812 V617F/W659A/W777A/F794H) above, with F82V counted along it
Description: Example B. JAK2 LanthaScreen JH2-WT Binding Assay
as §1, with “JH2-WT” for “JH2-V617F”, “Wild Type” for “V617F mutant”, “#79463).” for “#79498).”, “JH2-WT (0.145” for “JH2-V617F (0.26”

Compound | IC50 [1] [µM] | IC50 [2] [µM] | IC50 [3] [µM] | IC50 [4] [µM]
[2H]C([2H])([2H])n1c(=O)n([C@@H]2CC[C@@H](NC(=O)OC)C2)c2cc(Nc3cc(C(C)(O)C(F)(F)F)c4cccc(C(F)(F)F)c4n3)ncc21 (stereo partly drawn) [Example 3, Methyl ((1R,3R)-3-(3-(methyl-d3)-2-oxo-6-((4-(1,1,1-trifluoro-2-hydroxypropan-2-yl)-8-(trifluoromethyl)quinolin-2-yl)amino)-2,3-dihydro-1H-imidazo[4,5-c]pyridin-1-yl)cyclopentyl)carbamate] | > 1 | ≤ 0.01 | > 1 | ≤ 0.01
[2H]C([2H])([2H])n1c(=O)n([C@@H]2CC[C@@H](NC(=O)OC)C2)c2cc(Nc3cc(C)c4cccc(C(F)(F)F)c4n3)ncc21 [Example 4, Methyl ((1R,3R)-3-(3-(methyl-d3)-6-((4-methyl-8-(trifluoromethyl)quinolin-2-yl)amino)-2-oxo-2,3-dihydro-1H-imidazo[4,5-c]pyridin-1-yl)cyclopentyl)carbamate] | > 1 | ≤ 0.01 | > 1 | ≤ 0.01
[2H]C([2H])([2H])n1c(=O)n([C@@H]2CC[C@@H](NC(=O)OC)C2)c2cc(Nc3cc([S+](C)[O-])c4cccc(C(F)(F)F)c4n3)ncc21 (stereo partly drawn) [Example 5, Methyl ((1R,3R)-3-(3-(methyl-d3)-6-((4-(methylsulfinyl)-8-(trifluoromethyl)quinolin-2-yl)amino)-2-oxo-2,3-dihydro-1H-imidazo[4,5-c]pyridin-1-yl)cyclopentyl)carbamate] | > 1 | ≤ 0.01 | > 1 | ≤ 0.01
[2H]C([2H])([2H])n1c(=O)n([C@@H]2CC[C@@H](NC(=O)OC)C2)c2cc(Nc3cc(S(C)(=O)=O)c4cccc(C(F)(F)F)c4n3)ncc21 [Example 6, Methyl ((1R,3R)-3-(3-(methyl-d3)-6-((4-(methylsulfonyl)-8-(trifluoromethyl)quinolin-2-yl)amino)-2-oxo-2,3-dihydro-1H-imidazo[4,5-c]pyridin-1-yl)cyclopentyl)carbamate] | > 1 | ≤ 0.01 | > 1 | ≤ 0.01
[2H]C([2H])([2H])n1c(=O)n([C@@H]2CC[C@@H](NC(=O)OC)C2)c2cc(Nc3cc(S(C)(=N)=O)c4cccc(C(F)(F)F)c4n3)ncc21 (stereo partly drawn) [Example 7, methyl ((1R,3R)-3-(3-(methyl-d3)-6-((4-(S-methylsulfonimidoyl)-8-(trifluoromethyl)quinolin-2-yl)amino)-2-oxo-2,3-dihydro-1H-imidazo[4,5-c]pyridin-1-yl)cyclopentyl)carbamate] | > 1 | 0.01 to 0.1 | > 1 | ≤ 0.01
[2H]C([2H])([2H])n1c(=O)n([C@@H]2CC[C@@H](NC(=O)OCc3ccccc3)C2)c2cc(Nc3ccc4cccc(C(F)(F)F)c4n3)ncc21 [Example 8, Benzyl ((1R,3R)-3-(3-(methyl-d3)-2-oxo-6-((8-(trifluoromethyl)quinolin-2-yl)amino)-2,3-dihydro-1H-imidazo[4,5-c]pyridin-1-yl)cyclopentyl)carbamate] | > 1 | 0.01 to 0.1 | > 1 | 0.01 to 0.1
[2H]C([2H])([2H])n1c(=O)n([C@@H]2CC[C@@H](NC(=O)OC)C2)c2cc(Nc3cc(C(C)(C)O)c4cccc(C(F)(F)F)c4n3)ncc21 [Example 9, Methyl ((1R,3R)-3-(6-((4-(2-hydroxypropan-2-yl)-8-(trifluoromethyl)quinolin-2-yl)amino)-3-(methyl-d3)-2-oxo-2,3-dihydro-1H-imidazo[4,5-c]pyridin-1-yl)cyclopentyl)carbamate] | > 1 | ≤ 0.01 | > 1 | ≤ 0.01
[2H]C([2H])([2H])n1c(=O)n([C@@H]2CC[C@@H](NC(=O)OC)C2)c2cc(Nc3cc(C(=O)N(C)C(C)C)c4cccc(C(F)(F)F)c4n3)ncc21 [Example 10, Methyl ((1R,3R)-3-(6-((4-(isopropyl(methyl)carbamoyl)-8-(trifluoromethyl)quinolin-2-yl)amino)-3-(methyl-d3)-2-oxo-2,3-dihydro-1H-imidazo[4,5-c]pyridin-1-yl)cyclopentyl)carbamate] | > 1 | ≤ 0.01 | > 1 | ≤ 0.01
[2H]C([2H])([2H])n1c(=O)n([C@H]2C[C@H](NC(=O)OC)C2)c2cc(Nc3cc(C(C)(C)O)c4cccc(C(F)(F)F)c4n3)ncc21 [Example 15, Methyl ((trans)-3-(6-((4-(2-hydroxypropan-2-yl)-8-(trifluoromethyl)quinolin-2-yl)amino)-3-(methyl-d3)-2-oxo-2,3-dihydro-1H-imidazo[4,5-c]pyridin-1-yl)cyclobutyl)carbamate] | 0.1 to 0.5 | ≤ 0.01 | 0.1 to 0.5 | ≤ 0.01
[2H]C([2H])([2H])n1c(=O)n([C@H]2C[C@H](NC(=O)OC3CC3)C2)c2cc(Nc3cc(C(C)(C)O)c4cccc(C(F)(F)F)c4n3)ncc21 [Example 16, Cyclopropyl ((trans)-3-(6-((4-(2-hydroxypropan-2-yl)-8-(trifluoromethyl)quinolin-2-yl)amino)-3-(methyl-d3)-2-oxo-2,3-dihydro-1H-imidazo[4,5-c]pyridin-1-yl)cyclobutyl)carbamate] | 0.1 to 0.5 | ≤ 0.01 | 0.1 to 0.5 | ≤ 0.01
